Data published in patent US5770617A, “Terbenzimidazoles useful as antifungal agents” (Rutgers, The State University of New Jersey, priority 1997, dated 1998).

Assays:
[1] = test system: KBV-1 cells (multidrug-resistant variant, overexpress MDR1); settings: cited from earlier work
[2] = test system: human epidermoid carcinoma KB3-1 cell line; assay: MTT cytotoxicity assay, KB3-1; assay type: cell-based; settings: KB 3-1, 96 h, read-out: Cytotoxicity IC50 KB3-1
Method: (§1) The cytotoxicity was determined using the as MTT-microtiter plate tetrazolinium cytotoxicity assay (MTA) following the procedures of F. Denizot et al., J. Immunol. Methods, 89, 271 (1986); J. Carmichael et al., Cancer Res, 47, 936 (1987) and T. J. Mosmann et al., Immunol. Methods, 65, 55 (1983). The human lymphoblast RPMI 8402 and its camptothecin-resistant variant cell line, CPT-K5 were provided by Dr. Toshiwo Andoh (Aichi Cancer Center Research Institute, Nagoya, Japan). See, for example, T. Andoh et al., Adv. Pharmacol., 29B, 93 (1994). The cytotoxicity assay was performed using 96-well microtiter plates. Cells were grown in suspension at 37 ° C. in 5% CO2 and maintained by regular passage in RPMI medium supplemented with 10% heat inactivated fetal bovine serum, L-glutamine (2 mM), penicillin (100 U/ml), and streptomycin (0.1 mg/ml). For determination of IC50, cells were exposed continuously with varying concentrations of drug concentrations and MTT assays were performed at the end of the fourth day.
(§2) The drug sensitive human epidermoid carcinoma KB3-1 cell line (S. Aliyama et al., Somatic Cell Mol. Genet., 11, 117 (1985)) and its vinblastine-selected multidrug-resistant variant KBV-1 cells (D. W. Shen et al., Science, 32, 643 (1986)) were provided by Dr. Michael Gottesmann (National Cancer Institute, Bethesda, Md.). […]

[3] = test system: KBV-1 cells (multidrug-resistant variant, overexpress MDR1); assay: MTT cytotoxicity assay, KBV-1; assay type: cell-based, human
Method: as §1, §2

[4] = test system: yeast cells expressing yeast topoisomerase I; assay: Yeast cytotoxicity assay, yeast topoisomerase I; assay type: cell-based, S. cerevisiae
Source text: The topoisomerase I-specific in vivo cytotoxicity assay was adapted from A. M. Knab et al., J. Biol. Chem., 268, 22322 (1993). In this system, various topoisomerase I genes or cDNAs cloned into the single-copy yeast plasmid vector (YCpGAL1; Knab et al., cited above) are expressed under the control of the GAL1 promoter in the JN2-134 strain of S. cerevisiae (MAT, rad52::Leu2, trp1, ade2-1, his7, ura3-52, ise1, top1-1, and leu2; M. A. Bjornsti et al., Cancer Res., 49, 6318 (1989)). The topoisomerase I gene or cDNA constructs in the vector are, respectively, the wild-type yeast topoisomerase I gene (YCpGAL-ScTOP1; need cite (1989)), a nonfunctional topoisomerase I gene where the active site tyrosine-727 is mutated to phenylalanine (YCPGAL1-Sctop1Y727; A. M. Knab et al., J. Biol. Chem., 268, 22322 (1993)), and the wild-type human topoisomerase I cDNA (YCp-GAL-hTOP1; M. A. Bjornsti et al., Cancer Res., 49, 6318 (1989)).
To qualitatively test the cytotoxicity and the topoisomerase I specificity of the drugs, yeast cells containing the specified plasmid were grown in dropout medium supplemented with uracil, 2% galactose, and the drug being tested.

[5] = test system: CPT-K5 (camptothecin-resistant variant of RPMI 8402); settings: CPT-K5 versus RPMI 8402; reported by A. Y. Chen et al. 1993; cited from earlier work

CCOc1ccc(-c2nc3cc(-c4nc5cc(N6CCN(C)CC6)ccc5[nH]4)ccc3[nH]2)cc1 [Hoechst 33342, 2'-(4-ethoxyphenyl)-5-(4-methyl-1-piperazinyl)-2,5'-bi-1H-benzimidazole]
fold less cytotoxic to KB V-1 cells than to KB 3-1 ([1]; background, previously reported): approximately 130 fold | difference of IC50 for KB 3-1 as compared to KB V-1 cells ([1]; reported by A. Y. Chen et al. 1994): approximately two-orders of magnitude

c1ccc(-c2ccc3[nH]c(-c4ccc5[nH]c(-c6ccc7[nH]cnc7c6)nc5c4)nc3c2)cc1 [Compound 13, 5-Phenyl-2-[2'(benzimidazol-5"-yl)benzimidazol-5'-yl]benzimidazole]
IC50 [2]: 580 nM | difference between IC50 values in KB 3-1 and KB V-1 cells [3]: little difference

CC[C@@]1(O)C(=O)OCc2c1cc1n(c2=O)Cc2cc3ccccc3nc2-1 [camptothecin]
cytotoxicity to yeast cells expressing functional yeast topoisomerase I [4]: camptothecin-sensitive | resistance of yeast cells expressing yeast topoisomerase I relative to yeast cells expressing human topoisomerase I [4]: at least ten times more resistant | relative resistance (ratio of IC50 of resistant versus drug sensitive cell line) [5]: 2,500 fold
